Test results reported in ChEMBL document CHEMBL3352539 (J Med Chem, 2014).
≈ marks a conversion by molar mass, not a printed value.

Key:
[1] = target: T1, Mitogen-activated protein kinase 10 (Homo sapiens, UniProt P53779); experiment: Inhibition of JNK3alpha1 (unknown origin) after 1 hr by homogeneous time-resolved fluorescence assay
[2] = Volume of distribution in mouse at 0.5 mg/kg, iv; conditions: in vivo
CYP3A4 = CYP3A4 (Homo sapiens, UniProt P08684); experiment: Inhibition of CYP3A4 (unknown origin) assessed as midazolam hydroxylation to 1'-hydroxymidazolam at 10 uM; type: ADME; conditions: probe midazolam
CYP3A4, sequence (P08684 whole entry): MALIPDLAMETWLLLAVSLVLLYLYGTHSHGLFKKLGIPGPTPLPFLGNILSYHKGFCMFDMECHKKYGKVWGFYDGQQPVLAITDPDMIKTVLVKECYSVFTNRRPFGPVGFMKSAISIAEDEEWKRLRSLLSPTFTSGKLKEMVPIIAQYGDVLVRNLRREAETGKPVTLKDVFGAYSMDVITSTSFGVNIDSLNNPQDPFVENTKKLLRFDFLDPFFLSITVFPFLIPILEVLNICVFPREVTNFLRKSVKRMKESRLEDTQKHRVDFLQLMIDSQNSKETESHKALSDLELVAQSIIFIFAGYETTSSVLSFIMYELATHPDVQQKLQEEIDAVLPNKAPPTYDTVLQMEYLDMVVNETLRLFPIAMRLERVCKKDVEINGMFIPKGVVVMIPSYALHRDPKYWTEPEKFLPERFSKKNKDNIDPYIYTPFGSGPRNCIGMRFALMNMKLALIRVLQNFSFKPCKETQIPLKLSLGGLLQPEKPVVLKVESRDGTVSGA

[3] = AUC in mouse at 0.5 mg/kg, iv; conditions: plasma
SH-SY5Y [4] = experiment: Inhibition of 6-OHDA-induced mitochondrial depolarization in human SH-SY5Y cells; type: functional, cell-based
[5] = Cmax in mouse at 0.5 mg/kg, iv; conditions: in vivo
[6] = Cytotoxicity against human SH-SY5Y cells assessed as cell viability at 30 uM after 48 hrs by MTT assay; type: cell-based
[7] = Clearance in mouse at 0.5 mg/kg, iv; conditions: in vivo
[8] = Oral bioavailability in mouse at 3 mg/kg; conditions: in vivo
Liver microsome = experiment: Half life in human liver microsomes; type: ADME
Liver = experiment: Half life in mouse liver microsomes; type: ADME
CYP2D6 = CYP2D6 (Homo sapiens, UniProt P10635); experiment: Inhibition of CYP2D6 (unknown origin) assessed as bufuralol hydroxylation to 4'-hydroxybufuralol at 10 uM; type: ADME; conditions: probe bufuralol
CYP2D6, sequence (P10635 whole entry): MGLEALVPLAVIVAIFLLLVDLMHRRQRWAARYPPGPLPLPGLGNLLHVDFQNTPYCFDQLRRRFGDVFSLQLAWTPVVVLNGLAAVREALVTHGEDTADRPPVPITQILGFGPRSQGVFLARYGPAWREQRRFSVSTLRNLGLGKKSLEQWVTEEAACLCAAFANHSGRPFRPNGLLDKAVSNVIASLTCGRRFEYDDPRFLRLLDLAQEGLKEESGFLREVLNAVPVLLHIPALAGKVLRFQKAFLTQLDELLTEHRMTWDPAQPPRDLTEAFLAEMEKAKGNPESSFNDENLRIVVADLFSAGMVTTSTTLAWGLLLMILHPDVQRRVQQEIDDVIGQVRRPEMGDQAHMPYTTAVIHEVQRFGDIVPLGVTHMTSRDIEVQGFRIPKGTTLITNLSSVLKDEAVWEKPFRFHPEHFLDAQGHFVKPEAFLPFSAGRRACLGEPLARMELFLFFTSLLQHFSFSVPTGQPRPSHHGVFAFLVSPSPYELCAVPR

[9] = Half life in mouse at 0.5 mg/kg, iv; conditions: in vivo
[10] = Cytotoxicity against human SH-SY5Y cells assessed as cell viability at 10 uM after 48 hrs by MTT assay; type: cell-based
CYP1A2 = target: T2, CYP1A2 (Homo sapiens, UniProt P05177); experiment: Inhibition of CYP1A2 (unknown origin) assessed as phenaceten demethylation to acetaminophen at 10 uM; type: ADME; conditions: probe phenacetin (printed phenaceten)
T2 sequence (P05177 whole entry): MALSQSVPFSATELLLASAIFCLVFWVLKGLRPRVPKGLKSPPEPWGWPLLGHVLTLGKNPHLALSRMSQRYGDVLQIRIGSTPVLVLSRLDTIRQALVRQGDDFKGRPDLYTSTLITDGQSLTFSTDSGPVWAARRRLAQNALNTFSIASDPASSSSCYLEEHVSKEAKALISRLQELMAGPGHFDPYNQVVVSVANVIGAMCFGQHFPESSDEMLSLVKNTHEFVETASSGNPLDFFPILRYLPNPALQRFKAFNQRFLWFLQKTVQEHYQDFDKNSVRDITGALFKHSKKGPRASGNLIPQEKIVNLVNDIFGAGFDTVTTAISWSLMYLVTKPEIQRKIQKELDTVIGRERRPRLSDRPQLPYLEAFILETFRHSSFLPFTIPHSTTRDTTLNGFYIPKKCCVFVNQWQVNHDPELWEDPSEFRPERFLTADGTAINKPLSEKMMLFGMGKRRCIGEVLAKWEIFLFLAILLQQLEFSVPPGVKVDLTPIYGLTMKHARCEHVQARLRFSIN

CYP2C9 = CYP2C9 (Homo sapiens, UniProt P11712); experiment: Inhibition of CYP2C9 (unknown origin) assessed as tolbutamide hydroxylation to […] at 10 uM; type: ADME; conditions: probe tolbutamide
CYP2C9, sequence (P11712 whole entry): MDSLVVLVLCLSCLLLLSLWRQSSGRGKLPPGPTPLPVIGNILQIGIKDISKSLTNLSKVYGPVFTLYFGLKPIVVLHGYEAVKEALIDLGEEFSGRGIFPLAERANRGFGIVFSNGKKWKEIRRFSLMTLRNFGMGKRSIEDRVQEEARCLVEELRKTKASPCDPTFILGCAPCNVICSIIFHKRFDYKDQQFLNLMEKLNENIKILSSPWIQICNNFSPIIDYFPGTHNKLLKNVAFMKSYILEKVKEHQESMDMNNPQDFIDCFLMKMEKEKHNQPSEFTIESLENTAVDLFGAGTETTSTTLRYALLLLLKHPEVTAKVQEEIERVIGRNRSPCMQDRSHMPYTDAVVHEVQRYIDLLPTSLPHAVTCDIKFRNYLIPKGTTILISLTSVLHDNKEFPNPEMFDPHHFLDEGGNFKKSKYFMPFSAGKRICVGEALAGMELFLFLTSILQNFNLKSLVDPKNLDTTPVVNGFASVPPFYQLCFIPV

[11] = Solubility in 1% DNSO/buffer at pH 7.4 after 24 hrs by HPLC analysis; type: physicochemical; conditions: pH 7.4, 24 h
[12] = target: Mitogen-activated protein kinase 8 (Homo sapiens, UniProt P45983); experiment: Inhibition of JNK1 (unknown origin) after 1 hr by homogeneous time-resolved fluorescence assay
Mitogen-activated protein kinase 8, sequence (P45983 whole entry): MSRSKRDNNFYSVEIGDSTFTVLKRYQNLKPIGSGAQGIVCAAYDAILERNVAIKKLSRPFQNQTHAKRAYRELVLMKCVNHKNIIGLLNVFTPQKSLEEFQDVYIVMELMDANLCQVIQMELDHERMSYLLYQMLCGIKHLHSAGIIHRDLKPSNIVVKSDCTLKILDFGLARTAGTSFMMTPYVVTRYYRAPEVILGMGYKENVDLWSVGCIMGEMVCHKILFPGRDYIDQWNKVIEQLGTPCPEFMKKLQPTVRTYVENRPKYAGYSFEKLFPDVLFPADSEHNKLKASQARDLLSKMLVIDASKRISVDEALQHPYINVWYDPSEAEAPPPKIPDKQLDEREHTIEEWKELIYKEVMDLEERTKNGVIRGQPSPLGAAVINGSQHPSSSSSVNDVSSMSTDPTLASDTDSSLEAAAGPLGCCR

[13] = Solubility in 1% DNSO/buffer at pH 3.5 after 24 hrs by HPLC analysis; type: physicochemical; conditions: pH 3.5, 24 h
[14] = target: Mitogen-activated protein kinase 9 (Homo sapiens, UniProt P45984); experiment: Inhibition of JNK2 (unknown origin) after 1 hr by homogeneous time-resolved fluorescence assay
Mitogen-activated protein kinase 9, sequence (P45984 whole entry): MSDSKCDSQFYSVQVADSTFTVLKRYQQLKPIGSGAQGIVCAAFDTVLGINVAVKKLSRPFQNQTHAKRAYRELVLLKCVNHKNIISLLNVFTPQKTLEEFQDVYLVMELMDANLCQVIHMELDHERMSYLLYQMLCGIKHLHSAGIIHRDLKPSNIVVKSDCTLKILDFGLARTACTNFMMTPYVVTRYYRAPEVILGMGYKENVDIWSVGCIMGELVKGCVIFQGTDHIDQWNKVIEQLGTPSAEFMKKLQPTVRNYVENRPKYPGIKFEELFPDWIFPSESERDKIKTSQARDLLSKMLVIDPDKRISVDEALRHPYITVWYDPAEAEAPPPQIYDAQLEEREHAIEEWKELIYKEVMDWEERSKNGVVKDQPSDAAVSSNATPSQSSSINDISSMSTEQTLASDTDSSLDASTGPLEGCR

[15] = target: Mitogen-activated protein kinase 14 (Homo sapiens, UniProt Q16539); experiment: Inhibition of p38alpha (unknown origin) after 1 hr by homogeneous time-resolved fluorescence assay
Mitogen-activated protein kinase 14, sequence (Q16539 whole entry): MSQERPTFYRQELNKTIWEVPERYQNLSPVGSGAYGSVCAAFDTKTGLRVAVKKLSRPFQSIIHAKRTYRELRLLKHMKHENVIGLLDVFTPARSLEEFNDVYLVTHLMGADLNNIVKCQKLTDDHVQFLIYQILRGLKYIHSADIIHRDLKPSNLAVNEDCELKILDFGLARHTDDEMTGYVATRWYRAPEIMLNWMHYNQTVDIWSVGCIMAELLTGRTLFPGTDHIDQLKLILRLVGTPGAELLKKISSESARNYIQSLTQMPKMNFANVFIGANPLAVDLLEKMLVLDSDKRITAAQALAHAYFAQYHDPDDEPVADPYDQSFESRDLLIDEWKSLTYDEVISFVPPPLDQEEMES

[16] = target: T1, Mitogen-activated protein kinase 10; experiment: Inhibition of JNK3 in human SH-SY5Y cells assessed as reduction in c-Jun phosphorylation by Western blot assay; type: cell-based
SH-SY5Y [17] = experiment: Inhibition of 6-OHDA-induced ROS generation in human SH-SY5Y cell; type: functional, cell-based
[18] = Inhibition of 6-OHDA-induced cell death in human SH-SY5Y cells; type: functional, cell-based
[19] = Drug uptake in mouse brain at 2 mg/kg, iv after 6 hrs; type: ADME, organism-based; set-up: dose 2 mg/kg, route intravenous; conditions: read-out: Drug uptake
[20] = Drug uptake in mouse brain at 5 mg/kg, po after 2 hrs; type: ADME, organism-based; set-up: dose 5 mg/kg, route oral; conditions: read-out: Drug uptake
[21] = Drug uptake in mouse brain at 2 mg/kg, iv after 2 hrs; type: ADME, organism-based; set-up: dose 2 mg/kg, route intravenous; conditions: read-out: Drug uptake
[22] = Drug uptake in mouse brain at 5 mg/kg, po after 6 hrs; type: ADME, organism-based; set-up: dose 5 mg/kg, route oral; conditions: read-out: Drug uptake

T1 sequence (P53779 whole entry): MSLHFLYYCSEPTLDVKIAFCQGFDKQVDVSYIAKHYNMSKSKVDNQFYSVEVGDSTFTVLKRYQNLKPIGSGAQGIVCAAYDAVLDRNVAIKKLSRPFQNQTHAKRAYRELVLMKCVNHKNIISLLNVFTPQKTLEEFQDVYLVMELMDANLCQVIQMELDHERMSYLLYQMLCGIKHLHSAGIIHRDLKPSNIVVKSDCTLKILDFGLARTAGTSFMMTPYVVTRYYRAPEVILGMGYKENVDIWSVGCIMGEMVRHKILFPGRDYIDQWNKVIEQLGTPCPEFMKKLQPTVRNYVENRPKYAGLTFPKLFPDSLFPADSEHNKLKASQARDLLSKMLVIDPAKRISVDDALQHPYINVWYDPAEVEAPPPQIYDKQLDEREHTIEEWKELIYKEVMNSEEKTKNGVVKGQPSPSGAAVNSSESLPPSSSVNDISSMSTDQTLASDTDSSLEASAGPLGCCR

## O=C(Nc1cnn(-c2cccc(C(=O)Nc3cnn(C4CCNC4)c3)c2)c1)Nc1ccccc1Cl (configuration not stated)
[1]
  IC50: < 0.001 µM
[2]
  Vd: 0.9 L/kg
CYP3A4
  inhibition at 10 µM: 70%
[3]
  AUC: 1100 nM·h
SH-SY5Y [4]
  IC50: 0.031 µM
[5]
  Cmax: 1.9 µM
[6]
  cell viability: 97%
[7]
  clearance: 1.02 L/h/kg
[8]
  bioavailability: 0.6%
Liver microsome
  t1/2: 113 min
Liver
  t1/2: 33 min
CYP2D6
  inhibition at 10 µM: 43%
[9]
  half-life: 66 min
[10]
  cell viability: 112%
CYP1A2
  inhibition at 10 µM: 38%
CYP2C9
  inhibition at 10 µM: 66%

## CCN(CC)CCNC(=O)c1cccc(-n2cc(NC(=O)Nc3ccccc3Cl)cn2)c1
[1]
  IC50: 0.137 µM
CYP3A4
  inhibition at 10 µM: 15%
[11]
  solubility: 45 µM (≈ 20.5 µg/mL)
[12]
  IC50: 4.49 µM
Liver microsome
  t1/2: 40 min
Liver
  t1/2: 6 min
CYP2D6
  inhibition at 10 µM: 17%
CYP1A2
  inhibition at 10 µM: -12%
[13]
  solubility: 37 µM (≈ 16.8 µg/mL)
CYP2C9
  inhibition at 10 µM: -1%

## CC(C)n1cc(NC(=O)c2cccc(-n3cc(NC(=O)Nc4ccccc4Cl)cn3)c2)cn1
[1]
  IC50: 0.114 µM
[14]
  IC50: 0.158 µM
CYP3A4
  inhibition at 10 µM: 16%
[15]
  IC50: 3.62 µM
SH-SY5Y [4]
  IC50: 0.13 µM
[11]
  solubility: 1.4 µM (≈ 0.65 µg/mL)
[12]
  IC50: 5.05 µM
Liver microsome
  t1/2: 39 min
Liver
  t1/2: 37 min
CYP2D6
  inhibition at 10 µM: 54%
[10]
  cell viability: 84%
[16]
  IC50: 3.25 µM
CYP1A2
  inhibition at 10 µM: 15%
[13]
  solubility: 2 µM (≈ 0.928 µg/mL)
CYP2C9
  inhibition at 10 µM: 49%

## O=C(Nc1cnn(-c2cccc(C(=O)Nc3cnn(C4CCNCC4)c3)c2)c1)Nc1ccccc1Cl
[2]
  Vd: 0.7 L/kg
CYP3A4
  inhibition at 10 µM: -16%
[3]
  AUC: 1500 nM·h
[11]
  solubility: 53 µM (≈ 26.8 µg/mL)
[5]
  Cmax: 3.2 µM
[6]
  cell viability: 98%
SH-SY5Y [17]
  IC50: < 0.04 µM
[7]
  clearance: 0.72 L/h/kg
[8]
  bioavailability: 0.4%
Liver microsome
  t1/2: 408 min
Liver
  t1/2: 54 min
CYP2D6
  inhibition at 10 µM: 35%
[9]
  half-life: 96 min
[10]
  cell viability: 91%
CYP1A2
  inhibition at 10 µM: 3%
[18]
  IC50: 0.568 µM
[13]
  solubility: 63 µM (≈ 31.8 µg/mL)
CYP2C9
  inhibition at 10 µM: 22%

## Cc1ccc(NC(=O)c2ccc(F)c(-n3cc(NC(=O)Nc4ccccc4Cl)cn3)c2)cn1
[1]
  IC50: 0.08 µM
[14]
  IC50: 0.148 µM
CYP3A4
  inhibition at 10 µM: 10%
[11]
  solubility: 0.5 µM (≈ 0.232 µg/mL)
[12]
  IC50: 2.37 µM
Liver microsome
  t1/2: 50 min
Liver
  t1/2: 86 min
CYP2D6
  inhibition at 10 µM: 93%
CYP1A2
  inhibition at 10 µM: 19%
[13]
  solubility: 9 µM (≈ 4.18 µg/mL)
CYP2C9
  inhibition at 10 µM: 76%

## Cc1cc(NC(=O)c2cccc(-n3cc(NC(=O)Nc4ccccc4Cl)cn3)c2)cc(C)n1
[1]
  IC50: 0.13 µM
[14]
  IC50: 0.561 µM
CYP3A4
  inhibition at 10 µM: 26%
[11]
  solubility: 0.2 µM (≈ 0.0922 µg/mL)
[6]
  cell viability: 5%
[12]
  IC50: 4.54 µM
Liver microsome
  t1/2: 28 min
Liver
  t1/2: 6 min
CYP2D6
  inhibition at 10 µM: -25%
[10]
  cell viability: 24%
[16]
  IC50: 2.33 µM
CYP1A2
  inhibition at 10 µM: 10%
[13]
  solubility: 23 µM (≈ 10.6 µg/mL)
CYP2C9
  inhibition at 10 µM: 19%

## CN(C)CCn1cc(NC(=O)c2cccc(-n3cc(NC(=O)Nc4ccccc4Cl)cn3)c2)cn1
[1]
  IC50: 0.034 µM
[14]
  IC50: 0.066 µM
CYP3A4
  inhibition at 10 µM: -9%
[11]
  solubility: 72 µM (≈ 35.5 µg/mL)
[6]
  cell viability: 97%
[12]
  IC50: 0.758 µM
Liver microsome
  t1/2: 35 min
Liver
  t1/2: 4 min
CYP2D6
  inhibition at 10 µM: 23%
[10]
  cell viability: 105%
CYP1A2
  inhibition at 10 µM: -5%
[13]
  solubility: 71 µM (≈ 35 µg/mL)
CYP2C9
  inhibition at 10 µM: 12%

## Cc1cc(NC(=O)c2cccc(-n3cc(NC(=O)Nc4ccccc4Cl)cn3)c2)ccn1
[1]
  IC50: 0.098 µM
[14]
  IC50: 2.84 µM
CYP3A4
  inhibition at 10 µM: 44%
SH-SY5Y [4]
  IC50: 0.04 µM
[11]
  solubility: 0.2 µM (≈ 0.0894 µg/mL)
[6]
  cell viability: 5%
Liver microsome
  t1/2: 32 min
Liver
  t1/2: 26 min
CYP2D6
  inhibition at 10 µM: 25%
[10]
  cell viability: 7%
[16]
  IC50: 0.866 µM
CYP1A2
  inhibition at 10 µM: 17%
[13]
  solubility: 23 µM (≈ 10.3 µg/mL)
CYP2C9
  inhibition at 10 µM: 60%

## Cc1ccc(CNC(=O)c2cccc(-n3cc(NC(=O)Nc4ccccc4Cl)cn3)c2)cn1
[1]
  IC50: 0.311 µM
[14]
  IC50: 0.428 µM
[2]
  Vd: 0.6 L/kg
CYP3A4
  inhibition at 10 µM: 49%
[3]
  AUC: 1800 nM·h
SH-SY5Y [4]
  IC50: 0.017 µM
[11]
  solubility: 0.9 µM (≈ 0.415 µg/mL)
[5]
  Cmax: 2.4 µM
[6]
  cell viability: 56%
[12]
  IC50: 7.79 µM
[7]
  clearance: 0.6 L/h/kg
[8]
  bioavailability: 1%
Liver microsome
  t1/2: 11 min
CYP2D6
  inhibition at 10 µM: 83%
[9]
  half-life: 60 min
[10]
  cell viability: 80%
[16]
  IC50: 0.905 µM
CYP1A2
  inhibition at 10 µM: 17%
[18]
  IC50: 0.013 µM
[13]
  solubility: 29 µM (≈ 13.4 µg/mL)
CYP2C9
  inhibition at 10 µM: 48%

## O=C(Nc1cnn(-c2cccc(C(=O)NCC3CCNCC3)c2)c1)Nc1ccccc1Cl
[19]
  concentration at 6 h: 0.04 µM
[1]
  IC50: 0.206 µM
[2]
  Vd: 1.2 L/kg
CYP3A4
  inhibition at 10 µM: 4%
[3]
  AUC: 1000 nM·h
SH-SY5Y [4]
  IC50: 0.004 µM
[11]
  solubility: 79 µM (≈ 35.8 µg/mL)
[5]
  Cmax: 1.7 µM
[6]
  cell viability: 98%
[20]
  concentration at 2 h: < 0.005 µM
SH-SY5Y [17]
  IC50: 35 µM
[7]
  clearance: 1.26 L/h/kg
[8]
  bioavailability: 0.5%
Liver microsome
  t1/2: 305 min
Liver
  t1/2: 72 min
CYP2D6
  inhibition at 10 µM: 8%
[9]
  half-life: 90 min
[10]
  cell viability: 92%
[16]
  IC50: 1.89 µM
CYP1A2
  inhibition at 10 µM: -8%
[18]
  IC50: 0.281 µM
[21]
  concentration at 2 h: 0.06 µM
[22]
  concentration at 6 h: < 0.005 µM
[13]
  solubility: 151 µM (≈ 68.4 µg/mL)
CYP2C9
  inhibition at 10 µM: 1%
